Key:
r(CCUG)12-MBNL1 complex = assay: TR-FRET assay, disruption of pre-formed r(CCUG)12-MBNL1 complex; type: biochemical; details: in vitro, read-out: IC50 for disrupting an r(CCUG)12-MBNL1 complex
Description: Of the 44 hits, 38 contained a similar substituted N2-phenylquinazoline-2,4-diamine core, while the other hits contained benzimidazoles and indazoles (Figure S2). Importantly, these 44 compounds are drug-like as they have similar physicochemical properties to the rest of the library and to known-drugs in Drug Bank (FIG. 2A). On average, the 44 hit compounds have a molecular weight of 327±35 g/mol, a cLogP of 3.2±0.9. TPSA of 76±15 Å, and 2.5±0.9 hydrogen bond donors. The in vitro potencies (IC50s) of the 44 compounds were then measured in the TR-FRET assay, affording seven compounds (1-7) with IC50s <50 μM (highlighted in red in FIGS. 2B & 2C).
In vitro IC50 measurements: IC50 measurements for disruption of r(CCUG)12-MBNL1 complex was completed using a previously reported TR-FRET assay with minor modifications.^23, 24 Briefly, 5′-biotinylated r(CCUG)12 (SEQ ID NO: 15) was folded in 1× Folding Buffer (20 mM HEPES, pH 7.5, 110 mM KCl, and 10 mM NaCl) at 60° C. for 5 min then cooled to room temperature. The buffer was adjusted to 1× Assay Buffer (20 mM HEPES, pH 7.5, 110 mM KCl, 10 mM NaCl, 2 mM MgCl2, 2 mM CaCl2), 5 mM DTT. 0.1% BSA, and 0.5% Tween-20).
Next, MBNL1-His6 was added, and the samples were incubated at room temperature for 15 min. […] The samples were incubated for 30 min at room temperature and added to a white 384-well plate, where TR-FRET was measured on a Molecular Devices SpectraMax M5 plate reader using an excitation wavelength of 345-nm and a 420-nm cutoff. The ratios of fluorescence intensity at 545 and 665 nm were calculated, and ratios in the absence of a compound and in the absence of RNA were used to calculate percent disruption. […]
[formula] • where y is ratio of fluorescence intensities at 545 nm and 665 nm (F545/F665), x is the concentration of a compound, B is F545/F665 value at max FRET effect (solution has RNA and protein but no compound added); A is F545/F665 value at min FRET effect (solution has antibodies but no RNA, protein, or compound); and the IC50 is the concentration of a compound where half of the protein is displaced by a compound.

[1] = system: r(GACAGCCUGCUGUC)2 duplex, RNA containing a single 2×2 CU/UC internal loop; assay: NMR spectroscopy (WaterLOGSY, 1D) of binding to RNA with one 2×2 CU/UC internal loop
Description: The binding 1-7 an RNA containing a single 2×2 CU/UC was further studied by NMR spectroscopy. […] Aromatic protons of the unbound RNA were assigned via a 2D NOESY spectrum (Figure S7).
NMR samples preparation: A self-complementary RNA construct, r(5′-GACAGCCUGCUGUC-3′), SEQ ID NO:12, was purchased from GE Healthcare Dharmacon, Inc., deprotected according to the manufacturer's recommended protocol, and desalted with PD-10 columns (GE Healthcare, cat: 17-0851-01) also per the manufacturer's protocol. RNA samples were dissolved in NMR Buffer [10 mM KH2PO4/K2HPO4 and 0.05 mM EDTA (pH 6.0)] and folded by heating to 95° C. for 3 min and slowly cooling to room temperature.
NMR spectroscopy: NMR spectra were acquired at 25° C. on Bruker Avance III 600 and 700 MHZ spectrometers equipped with cryoprobes. 1D NMR spectra were acquired on samples containing 100 μM of RNA alone in 100% D20. Compounds 38, 40, 41, and 42 were each titrated into separate samples at 0.5, 1.0, 1.5, and 2.0 compound: RNA molar ratios. WaterLOGSY (water-ligand observed via gradient spectroscopy) spectra^29 were acquired on samples containing 300 μM of each compound alone or in the presence of 15 μM of RNA at a 20:1 compound:RNA ratio in H2O, to which D2O was added to 5% by volume. WaterLOGSY spectra were phased to give negative NOEs for non-binders. […]

[2] = system: IR exon 11 alternative splicing in DM2 patient-derived fibroblasts; assay: Rescue of IR exon 11 splicing via RT-PCR in DM2 fibroblasts; type: cell-based
Procedure: (§1) Cell lines and cell culture: Compounds were tested in two cell lines: (i) DM2 patient-derived fibroblasts (generous gift from University of Florida, Center for NeuroGenetics) and (ii) fibroblasts from a healthy donor (wild-type; WT GM07492; Coriell Institute). Cells were maintained at 37° ° C. with 5% CO2. DM2 fibroblasts were cultured in DMEM/high glucose (HyClone) supplemented with 20% FBS (Sigma) and 1% Antibiotic-Antimycotic solution (Corning). Wild-type fibroblasts were cultured in MEM (Corning) supplemented with 10% FBS, 1% Glutagro (Corning), and 1% Antibiotic-Antimycotic solution.
Evaluation of pre-mRNA splicing via RT-PCR: Pre-mRNA splicing was analyzed as previously described.^10 Briefly, cells were grown in 6-well plates and treated with the desired compound in growth medium at ˜40% confluency. After 48 h, the cells were lysed, and total RNA was harvested using a Zymo Quick RNA Miniprep Kit. Approximately 1 μg of total RNA was reverse transcribed using a qScript cDNA synthesis kit (20 μL of total reaction volume, Quanta BioSciences); 2 μL of the RT reaction was used for PCR using GoTaq DNA polymerase (Promega). RT-PCR products were observed after 35 cycles of 95° C. for 30 s, 58° C. for 30s, 72 °C for 1 min, and a final extension at 72° C. for 5 min. Products were separated on a 2% agarose gel (110 V for 1 h in 13TBE buffer), visualized by staining with ethidium bromide, and imaged using a Typhoon 9410 variable mode imager. Gels were quantified using ImageJ. Percent rescue was calculated by dividing the difference between treated and untreated DM2 samples by the difference between untreated DM2 and WT samples (Equation 2).

[3] = system: DM2 patient-derived fibroblasts; assay: Cell viability by CellTiter-Glo; type: cell-based; details: for toxicity in DM2 patient-derived fibroblasts: at 5 μM; for toxicity as stated in legend of FIG. 3C: DM2 fibroblasts
Procedure: as §1
Evaluation of cell viability: Compound toxicity in DM2 fibroblasts was evaluated using a CellTiter-Glo Kit (Promega) as described in the manufacturer's protocol. Briefly, after 48 h treatment in 96-wells plates, 100 μL of the CellTiter-Glo reagent was added to each well. The plate was then incubated at room temperature for 10 min, and luminescence was measured using BioTek FLX-800 luminescence plate reader (n=6 replicates; 1 independent experiment).

SMILES: OCCCNc1nc(Nc2ccc3c(c2)OCCO3)nc2ccccc12 [Compound 7, 3-((2-((2,3-dihydrobenzo[b][1,4]dioxin-6-yl)amino)quinazolin-4-yl)amino)propan-1-ol]
- IC50 (r(CCUG)12-MBNL1 complex): 48.2 ± 0.07 µM
- shifts of RNA H6 and H8 proton resonances in 1D NMR, indicating binding ([1]; compound added to RNA with one 2×2 CU/UC internal loop): Significant shifts in resonances
- binding to the RNA by waterLOGSY spectra ([1]; positive phase signals in the presence of RNA): bound to the RNA
- rescue of IR splicing ([2]; at 1 μM dose, p=0.026): 12±5
- rescue of IR exon 11 splicing ([2]; at 5 μM): ~50%

SMILES: Cc1ccc2nc(Nc3ccc4c(c3)OCCO4)nc(NCCCO)c2c1 [Compound 58, 3-((2-((2,3-dihydrobenzo[b][1,4]dioxin-6-yl)amino)-6-methylquinazolin-4-yl)amino)propan-1-ol]
- IC50 (r(CCUG)12-MBNL1 complex): 12.7 ± 0.2 µM

SMILES: Cc1ccc2nc(Nc3ccc4nc(NC5CCN(Cc6ccccc6)CC5)sc4c3)nc(NCCCO)c2c1 [Compound 71, 3-((2-((2-((1-benzylpiperidin-4-yl)amino)benzo[d]thiazol-6-yl)amino)-6-methylquinazolin-4-yl)amino)propan-1-ol]
- toxicity in DM2 patient-derived fibroblasts [3]: significant toxicity

SMILES: Cc1ccc2nc(Nc3ccc4nc(N5CCOCC5)sc4c3)nc(NCCCO)c2c1 [Compound 72, 3-((6-methyl-2-((2-morpholinobenzo[d]thiazol-6-yl)amino)quinazolin-4-yl)amino)propan-1-ol]
- toxicity in DM2 patient-derived fibroblasts [3]: significant toxicity

SMILES: Cc1ccc2nc(Nc3ccc4nc(NCC(C)C)sc4c3)nc(NCCCO)c2c1 [Compound 73, 3-((2-((2-(isobutylamino)benzo[d]thiazol-6-yl)amino)-6-methylquinazolin-4-yl)amino)propan-1-ol]
- toxicity in DM2 patient-derived fibroblasts [3]: significant toxicity

SMILES: Cc1ccc2nc(Nc3ccc4nc(NCCN5CCOCC5)sc4c3)nc(NCCCO)c2c1 [Compound 74, 3-((6-methyl-2-((2-((2-morpholinoethyl)amino)benzo[d]thiazol-6-yl)amino)quinazolin-4-yl)amino)propan-1-ol]
- toxicity in DM2 patient-derived fibroblasts [3]: significant toxicity

SMILES: Cc1ccc2nc(Nc3ccc4nc(NCC(C)(C)O)sc4c3)nc(NCCCO)c2c1 [Compound 78, 3-((2-((2-((2-hydroxy-2-methylpropyl)amino)benzo[d]thiazol-6-yl)amino)-6-methylquinazolin-4-yl)amino)propan-1-ol]
- toxicity in DM2 patient-derived fibroblasts [3]: no toxicity
- improvement of IR splicing ([2]; at 5 μM): significantly improved IR splicing

SMILES: Cc1ccc2nc(Nc3ccc4nc(NCCN(C)C)sc4c3)nc(NCCCO)c2c1 [Compound 79, 3-((2-((2-((2-(dimethylamino)ethyl)amino)benzo[d]thiazol-6-yl)amino)-6-methylquinazolin-4-yl)amino)propan-1-ol]
- toxicity as stated in legend of FIG. 3C [3]: non-toxic
- toxicity in DM2 patient-derived fibroblasts [3]: no toxicity
- rescue of IR splicing ([2]; any concentration studied): did not significantly rescue splicing

SMILES: Cc1ccc2nc(Nc3ccc4nc(N(CCO)CCO)sc4c3)nc(NCCCO)c2c1 [Compound 80, 2,2′-((6-((4-((3-hydroxypropyl)amino)-6-methylquinazolin-2-yl)amino)benzo[d]thiazol-2-yl)azanediyl)bis(ethan-1-ol)]
- toxicity as stated in legend of FIG. 3C [3]: non-toxic

SMILES: Cc1ccc2nc(Nc3ccc4nc(N5CCN(C)CC5)sc4c3)nc(NCCCO)c2c1 [Compound 82, 3-((6-methyl-2-((2-(4-methylpiperazin-1-yl)benzo[d]thiazol-6-yl)amino)quinazolin-4-yl)amino)propan-1-ol]
- toxicity in DM2 patient-derived fibroblasts [3]: significant toxicity

— patent US20240262817A1, “QUINAZOLINE DERIVATIVES TARGETING R(CCUG) REPEATS IN MYOTONIC DYSTROPHY TYPE 2” (University of Florida Research Foundation, Incorporated, priority 2021, published 2024)
